Laboratory results published in US9233961B2, “Compounds and compositions for the treatment of parasitic diseases” (Novartis AG, priority 2013, dated 2016).
Where two headings read alike, the source gives them in different places.

What was measured:
[1] = system: Leishmania donovani axenic amastigote parasites; assay: Leishmania donovani axenic amastigote proliferation assay; format: cell-based; settings: read-out: L. donovani amastigotes EC50
Procedure: Leishmania Donovani Axenic Amastigote Proliferation Assay
Leishmania donovani axenic amastigote parasites are grown at 37° C., 5% CO2 in media made of RPMI 1640, 4 mM L-glutamine, 20% heat inactivated FBS, 100 units/ml of penicillin and 100 μg/ml of streptomycin, 23 μM Folic Acid, 100 μM Adenosine, 22 mM D-glucose, 25 mM MES. The pH of media is adjusted to 5.5 at 37° C. using HCl. 20 μL of media is first dispensed into 384 well plates and 100 nL of the compounds of invention in DMSO are added to the plate wells. At the same time control compounds and DMSO are added to plates to serve as the positive and negative controls, respectively. 40 μL of parasite culture (9600 parasites) are then added to the plate wells. The plates are then placed into incubators. After 2 day incubation, 20 μL of Cell TiterGlo (Promega) is added to the plate wells. The luminescence signal of each well is measured using the Envision reader (Perkin Elmer). The percentage inhibition of 50%, EC50, is calculated for each of the compounds.

[2] = system: L. donovani HU3 strain in mouse peritoneal macrophages; assay: Assay for proliferation of Leishmania parasites in mouse peritoneal macrophages; format: cell-based, Leishmania donovani; settings: Leishmania donovani, Peritoneal macrophage
Source text: Assay for Proliferation of Leishmania Parasites
The activity of a compound according to the present invention for inhibition of parasitemai can be assessed by the parasite proliferation assay. The assay measures the increase in the parasite number in the assayed plate well using a DNA intercalating dye, SYBR Green I® dye (INVITROGEN) to stain Leishmania cell nuclei. It is understood that the assays illustrate the invention without in any way limiting the scope of the invention.
L. donovani HU3 strain is propagated by infecting BALB/c mice through tail vein injection with 10^7 Leishmania parasites. Infected mice are allowed to develop infection during 9-11 weeks post-infection. During this time, the parasites accumulate in the infected mouse spleens to large numbers, and the infected mice serve as the source of parasites for the in vitro measurement of compound efficacies. To assay a compound for anti-leishmanial activity, peritoneal macrophages isolated from non-infected BALB/c mice are seeded into 384-well plates at density 2×10^4 macrophages per well in […] of medium (RPMI 1640, 10% […], 10 mM HEPES, 1 mM sodium pyruvate, 1% Pen/Strep). Subsequently, the seeded plates are placed into an incubator set to maintain 37° C. temperature and atmosphere with 5% CO2. The next day, Leishmania parasites are isolated from the spleens of mice infected for 9-11 weeks and 4×10^5 isolated parasites in […] of the above media are added to each plate well. Plates are then returned into incubators and infection is allowed to proceed for 24 hours. After the infection of macrophages is completed, […] of compounds of the invention in the above medium, which also contains 5% DMSO, are added to plate wells containing infected macrophages. At the same time control compounds (miltefosine and amphotericin B) and DMSO are added to plates to serve as the positive and negative controls, respectively. After the compound addition, the plates are returned into incubator and cells infected with parasites are cultured for 5 days. At the end of cultivation, […] of 8% paraformaldehyde is added to plate wells and incubated for 15 min at room temperature. Following the incubation, the paraformaldehyde from plate wells is aspirated, and […] of PBS containing 0.2% Triton X-100 is added to wells. After 15 min incubation, the solution is aspirated from wells again, and replaced with SybrGreen Dye solution in PBS (1:125,000 dilution). Infected cells are imaged with Evotec Opera high-content microscope, and the number of parasites in well is determined by counting parasite nuclei visualized by staining with SybrGreen dye. The percentage inhibition of 50%, EC50, is calculated for each compound.
The inhibitory efficacy of the compounds of the invention in delaying the proliferation of L. donovani in mouse peritoneal macrophages is provided in Table I, infra.

[3] = read-out: L. donavani Macrophage EC50 (μM)
[4] = read-out: L. donavani Macrophage EC50

Row | Compound | EC50 ([1]; axenic amastigotes in vitro) | EC50 [2, 3] | EC50 [2, 4] | EC50 [1]
1 | CN(C)c1ccc(F)c(-c2nc3ncc(-c4ccc(OCCN5CCOCC5)cc4)cc3o2)c1 [Example 420, 4-Fluoro-N,N-dimethyl-3-(6-{4-[2-(morpholin-4-yl)ethoxy]phenyl}-[1,3]oxazolo[4,5-b]pyridin-2-yl)aniline] | > 25 µM | > 50 µM |  | 
2 | O=C(Nc1ccc(F)c(-c2nc3ncc(-c4ccccc4)cc3o2)c1)N1CCCC1 [Example 415, N-(4-fluoro-3-{6-phenyl-[1,3]oxazolo[4,5-b]pyridin-2-yl}phenyl)pyrrolidine-1-carboxamide] | 0.4 µM | 0.1 µM |  | 
3 | Cc1cnc2nc(-c3cc(NC(=O)c4ccc(F)o4)ccc3Cl)[nH]c2c1 [Compound 90] | 1.88 µM |  | 8 µM | 
4 | O=C(Nc1ccc(C(F)(F)F)cc1)Nc1ccc(F)c(-c2nc3ncc(-c4ccc(CN5CCOCC5)cc4)cc3o2)c1 [Compound 395] | 12 µM |  | 6.8 µM | 
5 | CC(C)OC(=O)Nc1ccc(Cl)c(-c2nc3ncc(-c4ccccc4N)cc3[nH]2)c1 [Compound 334] | 0.26 µM |  | 0.99 µM | 
6 | Cc1cnc2nc(-c3cc(NC(=O)c4c(C)noc4C)ccc3Cl)[nH]c2c1 [Compound 105] | > 25 µM |  | > 50 µM | 
7 | O=C(Nc1ccc(F)c(-c2nc3ncc(Br)cc3[nH]2)c1)N1CCOCC1 [Compound 365] | 19.8 µM |  | > 50 µM | 
8 | O=C(Nc1ccc(Cl)c(-c2nc3ncncc3[nH]2)c1)c1ccco1 [Compound 4] | 4.2 µM |  | 25.5 µM | 
9 | CC(C)Cc1cnc2nc(-c3cc(NC(=O)c4ccco4)ccc3Cl)[nH]c2c1 [Compound 76] | > 25 µM |  | > 50 µM | 
10 | COc1ccc(C(=O)Nc2ccc(Cl)c(-c3nc4ncc(C)cc4[nH]3)c2)cc1 [Compound 211] | > 22.8 µM |  | > 27.9 µM | 
11 | O=C(Nc1ccc(F)c(-c2nc3ncc(Br)cc3o2)c1)c1cocn1 [Compound 410] | > 25 µM |  | > 50 µM | 
12 | COc1cc(C(=O)Nc2ccc(Cl)c(-c3nc4ncc(C)cc4[nH]3)c2)ccn1 [Compound 129] | > 25 µM |  | 27.4 µM | 
13 | CC(C)c1cnc2nc(-c3cc(NC(=O)c4ccco4)ccc3Cl)[nH]c2c1 [Compound 77] | 6.7 µM |  | 35 µM | 
14 | CSc1nccc(C(=O)Nc2ccc(Cl)c(-c3nc4ncc(C)cc4[nH]3)c2)n1 [Compound 137] | > 25 µM |  | 15.9 µM | 
15 | Cc1ccnc2nc(-c3cc(NC(=O)c4ccco4)ccc3Cl)[nH]c12 [Compound 3] | > 25 µM |  | > 50 µM | 
16 | Cc1n[nH]cc1-c1cnc2nc(-c3cc(NC(=O)Nc4ccc(C(F)(F)F)cc4)ccc3F)oc2c1 [Compound 394] | 11.7 µM |  | 4.8 µM | 
17 | COC(=O)Nc1ccc(-c2cnc3nc(-c4cc(NC(=O)N5CCC(F)(F)C5)ccc4Cl)[nH]c3c2)cc1 [Example 343, Methyl N-[4-(2-{2-chloro-5-[(3,3-difluoropyrrolidin-1-yl)carbonylamino]phenyl}-1H-imidazo [4,5-b]pyridin-6-yl)phenyl]carbamate] |  |  | 0.51 µM | 0.245 µM
18 | O=C(Nc1ccc(Cl)c(-c2nc3ncc(-c4ccc(OCCN5CCCC5)cc4)cc3[nH]2)c1)c1ccco1 [Compound 55] | 2.06 µM |  | 6.7 µM | 
19 | COC(=O)c1ccc(-c2cnc3nc(-c4cc(NC(=O)c5ccco5)ccc4Cl)[nH]c3c2)cc1 [Compound 35] | 0.234 µM |  | 2.11 µM | 
20 | COCn1c(-c2cc(NC(=O)N3CCCC3)ccc2Cl)nc2cc(Br)cnc21 [Example 385, N-{3-[6-bromo-3-(methoxymethyl)-3H-imidazo[4,5-b]pyridin-2-yl]-4-chlorophenyl}pyrrolidine-1-carboxamide] |  |  | > 10.9 µM | > 23.2 µM
21 | COCn1c(-c2cc(NC(=O)N3CCCC3)ccc2Cl)nc2ncc(Br)cc21 [Example 386] | 4.3 µM |  | 4.3 µM | 
22 | COC(=O)Nc1ccc(-c2cnc3nc(-c4cc(NC(=O)N5CCCC5)ccc4Cl)[nH]c3c2)cc1 [Compound 296] | 0.034 µM |  | 0.126 µM | 

Row | Compound | EC50 ([1]; axenic amastigotes in vitro) | EC50 [2, 3] | EC50 [2, 4] | EC50 [1]
23 | O=C(Nc1ccc(Cl)c(-c2nc3ncc(-c4ccc(CCN5CCOCC5)cc4)cc3[nH]2)c1)c1ccco1 [Example 6, N-[4-chloro-3-(6-{4-[2-(morpholin-4-yl)ethyl]phenyl}-1H-imidazo[4,5-b]pyridin-2-yl)phenyl]furan-2-carboxamide] | 1.96 µM |  | 0.65 µM | 
24 | O=C(Nc1ccc(F)c(-c2nc3ncc(Br)cc3o2)c1)c1cnco1 [Compound 408] | 3.8 µM |  | > 50 µM | 
25 | Cc1cnc2nc(-c3cc(NC(=O)c4ccc(S(C)(=O)=O)nc4)ccc3Cl)[nH]c2c1 [Compound 136] | > 25 µM |  | > 50 µM | 
26 | Cc1ccc(C(=O)Nc2ccc(F)c(-c3nc4ncc(-c5ccsc5)cc4[nH]3)c2)o1 [Example 381, N-{4-fluoro-3-[6-(thiophen-3-yl)-1H-imidazo[4,5-b]pyridin-2-yl]phenyl}-5-methylfuran-2-carboxamide] | 2.5 µM |  | 1.6 µM | 
27 | O=C(Nc1ccc(Cl)c(-c2nc3ncc(-c4ccc(OCC5CCOCC5)cc4)cc3[nH]2)c1)c1ccco1 [Compound 26] | 0.68 µM |  | 2.17 µM | 
28 | O=C(Nc1ccc(Cl)c(-c2nc3ncc(C(F)(F)F)cc3[nH]2)c1)c1cnccn1 [Compound 285] | 0.73 µM |  | 5 µM | 
29 | CNc1ccc(-c2cnc3nc(-c4cc(NC(=O)Nc5ccc(C(F)(F)F)cc5)ccc4F)oc3c2)cc1 [Compound 393] | > 12.5 µM |  | > 50 µM | 
30 | Cc1cnc2nc(-c3cc(NC(=O)N4CC[C@@H](F)C4)ccc3Cl)[nH]c2c1 [Compound 234] | 2.03 µM |  | 9.7 µM | 
31 | O=C(Nc1ccc(Cl)c(-c2nc3ncc(-c4ccc(OCCCN5CCOCC5)cc4)cc3[nH]2)c1)N1CCCC1 [Compound 302] | 5.9 µM |  | 9.9 µM | 
32 | Cc1cnc2nc(-c3cc(NC(=O)c4ccno4)ccc3F)[nH]c2c1 [Compound 270] | 20 µM |  | > 50 µM | 
33 | Cc1cnc2nc(-c3cc(NC(=O)c4ccc(CN(C)C)o4)ccc3Cl)[nH]c2c1 [Compound 94] | > 25 µM |  | 4.9 µM | 
34 | CN(C)c1ccc(-c2cnc3nc(-c4cc(NC(=O)c5ccco5)ccc4Cl)[nH]c3c2)cn1 [Compound 65] | 0.197 µM |  | 1.58 µM | 
35 | O=C(Nc1ccc(Cl)c(-c2nc3ncc(-c4ccc(OCCn5cccn5)cc4)cc3[nH]2)c1)c1ccco1 [Compound 40] | 0.61 µM |  | 0.97 µM | 
36 | O=C(Nc1ccc(C(F)(F)F)cc1)Nc1ccc(F)c(-c2nc3ncc(N4CCCCC4)cc3o2)c1 [Compound 397] | > 25 µM |  | > 30 µM | 
37 | CCN(CC)C(=O)Nc1ccc(F)c(-c2nc3ncc(Cl)cc3[nH]2)c1 [Compound 355] | > 25 µM |  | > 50 µM | 
38 | Cc1cnc2nc(-c3cc(NC(=O)c4ncco4)ccc3Cl)[nH]c2c1 [Compound 104] | > 25 µM |  | > 50 µM | 
39 | Cc1cnc2nc(-c3cc(NC(=O)CO)ccc3Cl)[nH]c2c1 [Compound 183] | > 25 µM |  | > 50 µM | 
40 | CNC(=O)c1ccc(-c2cnc3nc(-c4cc(NC(=O)c5ccco5)ccc4Cl)[nH]c3c2)cc1 [Compound 64] | 0.68 µM |  | > 28.9 µM | 
41 | Cc1cnc2nc(-c3cc(NC(=O)CCCN4CCOCC4)ccc3Cl)[nH]c2c1 [Compound 132] | > 25 µM |  | > 50 µM | 
42 | Nc1ccc(-c2cnc3nc(-c4cc(NC(=O)c5ccco5)ccc4Cl)[nH]c3c2)cn1 [Compound 24] | 0.165 µM |  | 2.89 µM | 
43 | Cc1cnc2nc(-c3cc(NC(=O)c4ccnc(C)c4C)ccc3Cl)[nH]c2c1 [Compound 189] | > 25 µM |  | > 28.9 µM | 
